Results on 49 molecules are retold here after ChEMBL document CHEMBL5725323, “Heterocyclic ITK inhibitors for treating inflammation and cancer” (2017).

The term IC50 denotes the point on the concentration scale where inhibition reaches its midpoint.

The target of one experiment is T1, Tyrosine-protein kinase ITK/TSK (Homo sapiens, UniProt Q08881).
T1 sequence (Q08881 whole entry): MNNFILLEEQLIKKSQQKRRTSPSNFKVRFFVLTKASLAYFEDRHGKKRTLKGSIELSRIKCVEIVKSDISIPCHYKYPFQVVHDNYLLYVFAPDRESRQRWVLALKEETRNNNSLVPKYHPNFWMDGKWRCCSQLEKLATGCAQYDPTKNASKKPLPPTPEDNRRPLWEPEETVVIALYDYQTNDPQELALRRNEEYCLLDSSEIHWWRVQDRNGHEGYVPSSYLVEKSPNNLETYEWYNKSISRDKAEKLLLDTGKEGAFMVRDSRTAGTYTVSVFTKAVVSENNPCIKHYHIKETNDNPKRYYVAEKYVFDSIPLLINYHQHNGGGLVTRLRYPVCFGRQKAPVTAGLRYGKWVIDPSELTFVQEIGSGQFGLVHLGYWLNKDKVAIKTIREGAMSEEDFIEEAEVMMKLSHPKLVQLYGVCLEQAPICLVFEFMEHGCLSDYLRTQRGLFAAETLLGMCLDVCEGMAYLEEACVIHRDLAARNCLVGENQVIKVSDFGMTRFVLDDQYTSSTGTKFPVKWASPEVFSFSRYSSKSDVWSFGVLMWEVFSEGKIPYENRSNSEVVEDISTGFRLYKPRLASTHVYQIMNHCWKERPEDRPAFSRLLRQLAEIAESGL
Nature of the experiment: ITK Inhibitor Binding Kinetics: This assay is based on the binding of a proprietary, Alexa Fluor 647-labeled, ATP-competitive kinase inhibitor (kinase tracer-236) to the ITK expression construct in the presence of a Europium-conjugated antibody, resulting in a FRET (fluorescence resonance energy transfer) signal. Displacement of the kinase tracer by compound results in a lower emission ratio upon excitation of the Europium chelate. Candidate compounds are designed as potential irreversible inhibitors of ITK, capable of ligating to an active site cysteine residue resulting in time dependent covalent binding. The time dependent nature of irreversible inhibition is investigated by performing the binding assay with and without a pre-incubation of compound and ITK.
With `C=CC(=O)Nc1cccc(-c2cnc3[nH]cc(-c4ccc(=O)n(C)c4)c3c2)c1`, the 50% inhibitory concentration (IC50) is under 1000 nM.

Turning to `C=CC(=O)Nc1cccc(-c2cnc3[nH]cc(-c4ccc(NC)nc4)c3c2)c1`, the IC50 was under 1000 nM.

`COc1cc(/C=C(\C#N)C(N)=O)cc(-c2cnc3[nH]cc(-c4ccnc(OC)c4)c3c2)c1`: the IC50 was under 1000 nM.

As for `C=CC(=O)Nc1cc(-c2cnc3[nH]cc(-c4ccnc(F)c4)c3c2)cc(C(F)(F)F)c1`, the IC50 was under 1000 nM.

`C=CC(=O)Nc1cncc(-c2cnc3[nH]cc(-c4cn(C)c(=O)c5[nH]ccc45)c3c2)c1`: the half-inhibitory concentration (IC50) was under 1000 nM.

As to `C=CC(=O)Nc1cccc(-c2cnc3[nH]cc(-c4cncc5[nH]ccc45)c3c2)c1`, the IC50 was under 1000 nM.

As to `C=CC(=O)Nc1cccc(-c2cnc3[nH]cc(-c4cccnc4)c3c2)c1`, the concentration for half-maximal inhibition (IC50) is under 1000 nM.

Turning to `C=CC(=O)Nc1cccc(-c2cnc3[nH]cc(-c4ccc(OC)nc4)c3c2)c1`, the IC50 was under 1000 nM.

`C=CC(=O)Nc1cccc(-c2cnc3[nH]cc(-c4cccc5ccccc45)c3c2)c1`: the IC50 is under 1000 nM.

With `C=CC(=O)Nc1cccc(-c2cnc3[nH]cc(-c4cc(OC)nc(C(F)(F)F)c4)c3c2)c1`, the half-inhibitory concentration (IC50) is over 1000 nM.

For the molecule `C=CC(=O)Nc1cc(C#N)cc(-c2cnc3[nH]cc(-c4ccncc4)c3c2)c1`, the concentration for half-maximal inhibition (IC50) was under 1000 nM.

`C=CC(=O)Nc1cccc(-c2cnc3[nH]cc(-c4cc(C)ncn4)c3c2)c1`: the half-maximal inhibitory concentration (IC50) is under 1000 nM.

For the molecule `C=CC(=O)Nc1cccc(-c2cnc3[nH]cc(-c4ccnc5[nH]ccc45)c3c2)c1`, the 50% inhibitory concentration (IC50) was under 1000 nM.

For `C=CC(=O)Nc1cc(-c2cnc3[nH]cc(-c4cccnc4)c3c2)cc(C(F)(F)F)c1`, the IC50 was under 1000 nM.

`C=CC(=O)Nc1cccc(-c2cnc3[nH]cc(-c4cncc(Cl)c4)c3c2)c1`: the half-maximal inhibitory concentration (IC50) was under 1000 nM.

As to `C=CC(=O)Nc1cccc(-c2cnc3[nH]cc(-c4ccc(OCC5CC5)nc4)c3c2)c1`, the IC50 was under 1000 nM.

With `C=CC(=O)Nc1cc(-c2cnc3[nH]cc(-c4ccc(F)nc4)c3c2)cc(C(F)(F)F)c1`, the IC50 is under 1000 nM.

Turning to `C=CC(=O)Nc1cccc(-c2cnc3[nH]cc(-c4ccc(F)nc4)c3c2)c1`, the IC50 is under 1000 nM.

For `C=CC(=O)Nc1cccc(-c2cnc3[nH]cc(-c4ccc(=O)n(CC(C)(C)O)c4)c3c2)c1`, the IC50 is under 1000 nM.

With `COC/C=C/C(=O)Nc1cccc(-c2cnc3[nH]cc(-c4ccnc(OC)c4)c3c2)c1`, the IC50 is under 1000 nM.

In the case of `C=CC(=O)Nc1cccc(-c2cnc3[nH]cc(-c4ccnc(C)c4)c3c2)c1`, the half-maximal inhibitory concentration (IC50) was under 1000 nM.

For the molecule `N#C/C(=C\c1cccc(-c2cnc3[nH]cc(-c4ccncn4)c3c2)c1)C(N)=O`, the IC50 is under 1000 nM.

Regarding `C=CC(=O)NC1CN(c2cnc3[nH]cc(-c4ccnc(C#N)c4)c3c2)C1`, the IC50 was under 1000 nM.

`C=CC(=O)Nc1cccc(-c2cnc3[nH]cc(-c4cc(C)cc(OC)n4)c3c2)c1`: the IC50 is under 1000 nM.

As to `C=CC(=O)Nc1cccc(-c2cnc3[nH]cc(-c4cccc5cnccc45)c3c2)c1`, the half-maximal inhibitory concentration (IC50) is under 1000 nM.

For the molecule `C=C(C)C(=O)Nc1cc(-c2cnc3[nH]cc(-c4ccnc(OC)c4)c3c2)cc(-c2cnn(C)c2)n1`, the 50% inhibitory concentration (IC50) was under 1000 nM.

In the case of `N#C/C(=C\c1cccc(-c2cnc3[nH]cc(-c4ccc(F)nc4)c3c2)c1)C(N)=O`, the IC50 was under 1000 nM.

For the molecule `C=CC(=O)Nc1cccc(-c2cnc3[nH]cc(-c4cc(OC)ncc4C)c3c2)c1`, the IC50 is under 1000 nM.

The target of a further experiment is T1, Tyrosine-protein kinase ITK/TSK. Nature of the experiment: ITK Target Modulation PLC-gamma Assay: Compounds were serially diluted into DMSO, and then into media to concentrations 10× that of the final assay concentration. Compounds were then added to the cells with the final assay DMSO concentration being 0.1%. Cells were incubated for 1 hour at 37° C. Following compound incubation, αCD3 Dynabeads were added at 1 bead/cell to each assay well and incubated at 37° C. for 7 minutes. Unstimulated control wells received media only. The plate was then placed on a 96-well magnetic plate for an additional 60 seconds (total assay stimulation time equals 8 minutes). The plate was then dumped and gently patted dry on a paper towel. 50 ul of complete Meso Scale Discovery (MSD) Lysis buffer was then added to each well. Samples were assayed for phospho-PLCγ1 using Meso Scale Discovery technology.
Molecule `C=CC(=O)Nc1cccc(-c2cnc3[nH]cc(-c4cc(NC)ncn4)c3c2)c1` had an IC50 of 1000 to 5000 nM.

The molecule `C=CC(=O)Nc1cccc(-c2cnc3[nH]cc(-c4ccccc4C)c3c2)c1` had a 50% inhibitory concentration (IC50) of 1000 to 5000 nM.

Molecule `C=CC(=O)Nc1cccc(-c2cnc3[nH]cc(-c4ccc(=O)n(CC5CC5)c4)c3c2)c1` showed an IC50 of under 1000 nM.

Regarding `C=CC(=O)Nc1cccc(-c2cnc3[nH]cc(-c4cccc(OC)c4)c3c2)c1`, the IC50 was in the range of 1000 to 5000 nM.

`C=CC(=O)Nc1cc(-c2cnc3[nH]cc(-c4ccc(OC)nc4)c3c2)cc(C(F)(F)F)c1`: the IC50 lay within 1000 to 5000 nM.

`C=CC(=O)Nc1cccc(-c2cnc3[nH]cc(-c4ccnc(NC)c4)c3c2)c1`: the IC50 is under 1000 nM.

In the case of `C=CC(=O)Nc1cc(-c2cnc3[nH]cc(-c4ccnc(OC)c4)c3c2)cc(C(O)(CC)CC)c1`, the IC50 was in the range of 1000 to 5000 nM.

Molecule `C=CC(=O)Nc1cccc(-c2cnc3[nH]cc(-c4ccncn4)c3c2)c1` had an IC50 of under 1000 nM.

`C=CC(=O)Nc1cccc(-c2cnc3[nH]cc(-c4cccc5ncccc45)c3c2)c1` came in with an IC50 of 1000 to 5000 nM.

Regarding `C=CC(=O)Nc1cccc(-c2cnc3[nH]cc(-c4ccnc5ccccc45)c3c2)c1`, the IC50 lay within 1000 to 5000 nM.

With `C=CC(=O)Nc1cccc(-c2cnc3[nH]cc(-c4cccc5occc45)c3c2)c1`, the half-maximal inhibitory concentration (IC50) was over 5000 nM.

In turn, `C=CC(=O)Nc1cccc(-c2cnc3[nH]cc(-c4cn(CC5CC5)c(=O)c5[nH]ccc45)c3c2)c1` gave a concentration for half-maximal inhibition (IC50) of 1000 to 5000 nM.

As to `Cc1cc(-c2c[nH]c3ncc(-c4cccc(/C=C(\C#N)C(N)=O)c4)cc23)ccn1`, the IC50 was in the range of 1000 to 5000 nM.

For the molecule `C=CC(=O)Nc1cccc(-c2cnc3[nH]cc(-c4cccc5[nH]ccc45)c3c2)c1`, the IC50 is 1000 to 5000 nM.

For `C=CC(=O)Nc1cc(OC)cc(-c2cnc3[nH]cc(-c4ccncc4)c3c2)c1`, the IC50 was under 1000 nM.

`C=CC(=O)Nc1cccc(-c2cnc3[nH]cc(-c4ccnc(NC)n4)c3c2)c1` gave an IC50 of under 1000 nM.

In the case of `C=CC(=O)Nc1cc(-c2cnc3[nH]cc(-c4ccncc4)c3c2)cc(C(F)(F)F)c1`, the half-maximal inhibitory concentration (IC50) is under 1000 nM.

The molecule `C=CC(=O)Nc1cccc(-c2cnc3[nH]cc(-c4ccnc(F)c4)c3c2)c1` registered a 50% inhibitory concentration (IC50) of under 1000 nM.

In the case of `C=CC(=O)Nc1cccc(-c2cnc3[nH]cc(-c4cc(C)nc(OC)c4)c3c2)c1`, the IC50 lay in the range of 1000 to 5000 nM.

Turning to `C=CC(=O)Nc1cc(-c2cnc3[nH]cc(-c4ccnc(OC)c4)c3c2)cc(-c2cnn(C)c2)c1`, the IC50 was under 1000 nM.

As for `C=CC(=O)Nc1cccc(-c2cnc3[nH]cc(-c4cccc(C#N)c4)c3c2)c1`, the half-maximal inhibitory concentration (IC50) was 1000 to 5000 nM.
